# Laboratory results reported in article PMC8367633 (Journal of Applied Glycoscience, 2020).
# Target: T1, Blon_0248 (Bifidobacterium longum, UniProt A0ACD7UNL5)
# T1 sequence (A0ACD7UNL5 1-449): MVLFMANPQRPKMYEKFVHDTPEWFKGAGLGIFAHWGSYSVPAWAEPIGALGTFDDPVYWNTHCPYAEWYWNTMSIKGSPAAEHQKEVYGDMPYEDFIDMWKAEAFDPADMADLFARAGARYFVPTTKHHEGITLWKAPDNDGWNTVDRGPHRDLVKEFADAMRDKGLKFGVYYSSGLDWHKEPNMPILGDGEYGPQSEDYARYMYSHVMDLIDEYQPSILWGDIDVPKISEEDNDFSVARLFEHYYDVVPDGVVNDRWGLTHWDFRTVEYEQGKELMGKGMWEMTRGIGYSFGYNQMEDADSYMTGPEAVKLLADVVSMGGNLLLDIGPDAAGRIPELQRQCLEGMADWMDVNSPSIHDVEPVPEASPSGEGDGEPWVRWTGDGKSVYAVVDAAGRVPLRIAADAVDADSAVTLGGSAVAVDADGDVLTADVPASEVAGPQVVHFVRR
# Assay: pNP release, absorbance […] nm
# Type: biochemical
# Conditions: 50 mM sodium acetate pH 6.0, 37 °C
smiles,measurement,value
C[C@@H]1O[C@@H](Oc2ccc([N+](=O)[O-])cc2)[C@@H](O)[C@H](O)[C@@H]1O [pNP-α-Fuc],"pNP release, absorbance 405 nm","Both proteins specifically hydrolyzed pNP-α-Fuc, but not any of the other pNP-glycosides tested"
